Assay results: article PMC8622523, “New Diterpenoids from Mesona procumbens with Antiproliferative Activities Modulate Cell Cycle Arrest and Apoptosis in Human Leukemia Cancer Cells” (Pharmaceuticals, 2021)

What was measured:
hepatoma = test system: hepatoma; parameters: method as in PMID 30835539; conditions: read-out: anti-hepatoma IC50; cited from earlier work
KYSE-150 cells = conditions: cited from earlier work
KYSE-450 cells = conditions: cited from earlier work
[1] = test system: human breast cancer cell line MCF-7; parameters: method as in PMID 15639346; conditions: cited from earlier work
[2] = test system: A549 (human lung carcinoma); assay: Cytotoxicity assay (Cell Counting Kit-8), A549; format: cell-based; conditions: 72 h of drug treatment, means ± SD of 3 independent experiments
Method: (§1) A549 (human lung carcinoma), Hep-3B (human liver carcinoma), PC-3 (human prostate carcinoma), HT29 (human colon carcinoma), U937 (human monoblastic leukemia), and RAW 264.7 cells were purchased from the Food Industry Research and Development Institute (Hsinchu, Taiwan) and cultured in 10% heat-inactivated fetal bovine serum (FBS) in DMEM or RPMI-1640. Cell viability was determined by using Cell Counting Kit-8 (CCK-8; Dojindo, Rockville, MD, USA) according to the manufacturer’s instructions. All experiments were performed in triplicate.

[3] = test system: Hep-3B (human liver carcinoma); assay: Cytotoxicity assay (Cell Counting Kit-8), Hep-3B; format: cell-based; conditions: 72 h of drug treatment, means ± SD of 3 independent experiments
Method: as §1

[4] = test system: PC-3 (human prostate carcinoma); assay: Cytotoxicity assay (Cell Counting Kit-8), PC-3; format: cell-based; conditions: 72 h of drug treatment, means ± SD of 3 independent experiments
Method: as §1

[5] = test system: HT29 (human colon carcinoma); assay: Cytotoxicity assay (Cell Counting Kit-8), HT29; format: cell-based; conditions: 72 h of drug treatment, means ± SD of 3 independent experiments
Method: as §1

[6] = test system: U937 (human monoblastic leukemia); assay: Cytotoxicity assay (Cell Counting Kit-8), U937; format: cell-based; conditions: for IC50: 72 h of drug treatment, Cell Counting Kit-8, means ± SD of 3 independent experiments; for times less potent than 1 and 2: U937 cell lines, SAR comparison
Method: as §1

[7] = test system: normal mouse RAW 264.7 macrophages; assay: Cytotoxicity assay (Cell Counting Kit-8), RAW 264.7; format: cell-based; conditions: for IC50: normal mouse macrophage cell line, 72 h of drug treatment, Cell Counting Kit-8; for toxicity against normal mouse RAW 264.7 macrophages compared with cancer cells: in words
Method: as §1

[8] = test system: A549, Hep-3B, PC-3, HT29, and U937 cancer cells; assay: Antiproliferative activity, panel of five cancer cell lines; format: cell-based; conditions: Homo sapiens, read-out: IC50 values, range over five cancer cell lines
Method: as §1

U937 cells [9] = assay: Cell cycle and sub-G1 analysis by flow cytometry (PI staining); format: cell-based, human; conditions: for time course cell cycle analysis: 5 μM mesonol A or 10 μM mesonol B, 3-24 h; for effect of NAC pretreatment on compound-induced cell cycle change (sub-G1 accumulation or G2/M arrest): 10 mM NAC for 1 h, then 5 µM mesonol A 12 h or 10 µM mesonol B 6 h
Method: U937 cells were treated with mesonols A (1) or B (2), dosage range: 0.625–10 µM, for the specified time period, fixed in ice-cold 70% ethanol in PBS, suspended in Krishan’s reagent (0.05 mg/mL propidium iodide (PI), 0.1% sodium citrate, 0.02 mg/mL ribonuclease A and 0.3% NP-40), and incubated on ice for 30 min. Data acquisition for 10,000 events was performed with an FACScan system (Becton Dickinson). The distribution of cells in the different phases of the cell cycle was analyzed from the DNA histograms using CELL Quest software. All experiments were performed in triplicate.

U937 cells [10] = assay: Western blot analysis of cell cycle regulators and apoptosis-related proteins; format: cell-based, human
Method: Cells were lysed in RIPA buffer with phenylmethylsulfonyl fluoride (PMSF; Beyotime Biotechnology, Jiangsu, China). The protein concentration was determined using a Bio-Rad protein assay system (Bio-Rad, Hercules, CA, USA). Equivalent amounts of proteins were separated by SDS–PAGE and then transferred to polyvinylidene difluoride membranes (Bio-Rad). After blocking in TBS containing 5% nonfat milk, the membranes were incubated with primary antibodies (1:1000 dilution) at 4 °C for 12 h and then incubated with a horseradish peroxidase-conjugated secondary antibody (1:5000 dilution). Signals were detected on X-ray film using an ECL detection system (Pierce, Rockford, IL, USA). The relative protein levels were calculated based on β-actin as the loading control.

U937 cells [11] = assay: Measurement of intracellular ROS generation (DCFDA); format: cell-based, human; conditions: for intracellular ROS levels compared to control: 5 µM mesonol A or 10 µM mesonol B, 30 min, DCFH-DA
Method: U937 cells were seeded onto 96-well microplates at a final concentration of 1 × 10^5 cells per well and treated with mesonol A or B (5 or 10 µM) for 30 min with or without pretreatment with N-acetylcysteine (NAC) (10 mM) for 1 h. The cells were stained with 2′,7′-dichlorofluorescin diacetate (DCFDA) Cellular Reactive Oxygen Species Detection Assay Kit (Abcam, Cambridge, UK) solution (20 µM) and then incubated at 37 °C for 30 min in the dark. Fluorescence measurements were performed with a fluorescence plate reader (Bio-Rad, Hercules, CA, USA) at Ex/Em = 485/535 nm in end point mode in the presence of compounds, medium, or buffer. All experiments were performed in triplicate.

HL-60 cells = test system: HL-60 cells; parameters: method as in PMID 20851175; conditions: cited from earlier work

Compound	IC50 ([2]; Homo sapiens, A549, 72 h) [µM]	IC50 ([3]; Homo sapiens, Hep3B, 72 h) [µM]	IC50 ([4]; Homo sapiens, 72 h) [µM]	IC50 ([5]; Homo sapiens, HT-29, 72 h) [µM]	IC50 ([6]; Homo sapiens, U-937, 72 h) [µM]	IC50 ([7]; RAW264.7) [µM]	other results
4α-hydroxy-17,19-dinor-ent-kaurane-16-one							IC50 (hepatoma): > 100 µM
C=C1C(=O)[C@@]23[C@@H]4O[C@H]5O[C@@]2(O)[C@@H](O)[C@@H]2C(C)(C)CCC[C@]52[C@@H]3CC[C@@H]14 [xerophilusin B]							apoptosis and cell cycle arrest (KYSE-150 cells): induce apoptosis and G2/M phase cell cycle arrest; apoptosis and cell cycle arrest (KYSE-450 cells): induce apoptosis and G2/M phase cell cycle arrest
CC1(C)CCC[C@]2(C)[C@@H]1CC[C@@]13C[C@@H](CC[C@H]12)[C@@](O)(CO)C3.CC1(C)CCC[C@]2(C)[C@@H]1CC[C@@]13C[C@@H](CC[C@H]12)[C@@](O)(CO)C3.O (single isomer, unassigned; ent-16) [ent-16β,17α-dihydroxykaurane]							cytotoxicity and apoptotic effects [1]: exhibit cytotoxicity and apoptotic effects
CC1(C)CCCC2(C)C1CCC13CC(C(O)CC12)C(O)(CO)C3=O (stereo not drawn) [Compound 1, 12α,16β,17-trihydroxy-ent-kaur-15-one]	17.4 ± 0.28	12.1 ± 0.55	12.5 ± 0.24	9.1 ± 0.38	2.66 ± 0.14	> 50	toxicity against normal mouse RAW 264.7 macrophages compared with cancer cells [7]: less toxic against normal mouse RAW 264.7 macrophages; IC50 [8]: 1.97 to 19.9 µM; time course cell cycle analysis (U937 cells [9]): time-dependent accumulation of cells arrested in the G2/M phase; effect on cell population at G2/M phase (U937 cells [9]; 10 μM, 24 h): significant increase in the cell population at G2/M phase; effect of NAC pretreatment on compound-induced cell cycle change (sub-G1 accumulation or G2/M arrest) (U937 cells [9]): little to no effect; effect on percentage of sub-G1 population, dose response (U937 cells [9]; 0.625-10 μM, 24 h, plateau at 5 μM): dose-dependently increased the percentage of the sub-G1 population; G2/M progression proteins cdc25c, cyclin B1, CDK1 (U937 cells [10]; 5 µM, 12 h): decreases in the G2/M progression proteins cdc25c, cyclin B1, and CDK1; p21 protein level (U937 cells [10]; 5 µM, 12 h): significant increase in p21 protein; intracellular ROS levels compared to control (U937 cells [11]): did not induce an increase in intracellular ROS levels
CC1(C)CCCC2(C)C1CCC13CC(C(O)CC21)C(O)(CO)C3O (stereo not drawn) [Compound 5, 12α,15β,16α,17-tetrahydroxy-ent-kaurane]							IC50 [2]: > 20 µM; IC50 [3]: > 20 µM; IC50 [4]: > 20 µM; IC50 [5]: > 20 µM; IC50 [6]: > 20 µM; IC50 [7]: > 50 µM
CC1(C)CCCC2(C)C1CCC13CC=C(CO)C1OC(=O)CC23 (centres unmarked) [Compound 11, sarcopetal-13(16)-en-17-ol-12,15-olide]	> 20	> 20	> 20	> 20	> 20	> 50	
CC1(C)CCCC2(C)C1CCC13CC(C(O)CC12)C(CO)C3=O (stereo not drawn) [Compound 2, 12α-hydroxy-16β-hydroxymethyl-ent-kaur-15-one]	7.39 ± 0.42	7.06 ± 0.38	4.19 ± 0.31	2.78 ± 0.03	1.97 ± 0.09	> 50	toxicity against normal mouse RAW 264.7 macrophages compared with cancer cells [7]: less toxic against normal mouse RAW 264.7 macrophages; IC50 [8]: 1.97 to 19.9 µM; time course cell cycle analysis (U937 cells [9]): did not cause an obvious accumulation of cells in any phase but significantly increased apoptotic cells in the sub-G1 population; sub-G1 population (U937 cells [9]; 5 μM, 24 h): 6.33%; sub-G1 population (U937 cells [9]; 10 μM, 24 h): 53.86%; effect of NAC pretreatment on compound-induced cell cycle change (sub-G1 accumulation or G2/M arrest) (U937 cells [9]): significantly suppressed; PARP cleavage (U937 cells [10]; 10 µM, 6 h): significantly cleaved and activated; antiapoptotic proteins (Bcl-2, Bcl-xL) (U937 cells [10]; 10 µM, 6 h): decreases in antiapoptotic proteins, including Bcl-2 and Bcl-xL; caspase-9 and -3 activation (pro-caspase-9 and -3 protein levels) (U937 cells [10]; 10 µM, 6 h): induced the activation of caspase-9 and -3; proapoptosis-related proteins (Bax, cytochrome c, apaf-1) (U937 cells [10]; 10 µM, 6 h): increases in proapoptosis-related proteins, including Bax, cytochrome c and apaf-1; intracellular ROS levels compared to control (U937 cells [11]): significantly higher than those in control cells; intracellular ROS levels with NAC pretreatment (U937 cells [11]; 10 mM NAC 1 h, then 10 µM mesonol B 30 min): could be blocked by pretreatment with NAC
CCc1c2c(nc3ccc(OC(=O)N4CCC(N5CCCCC5)CC4)cc13)-c1cc3c(c(=O)n1C2)COC(=O)[C@]3(O)CC [CPT-11, reference compound]							IC50 [2]: 15.3 ± 0.42 µM; IC50 [3]: 23.2 ± 0.38 µM; IC50 [4]: 31.03 ± 0.28 µM; IC50 [5]: 15.1 ± 0.48 µM; IC50 [6]: 4.95 ± 0.43 µM
CC1(C)CCCC2(C)C1CCC13C(O)C(C(=O)CC21)C(O)(CO)C3O (stereo not drawn) [Compound 6, 14β,15β,16β,17-tetrahydroxy-ent-kaur-12-one]	> 20	> 20	> 20	> 20	> 20	> 50	
CC1(C)CCCC2(C)C1CCC13CC(C(=O)CC21)C(O)(CO)C3O (stereo not drawn) [Compound 7, 15β,16β,17-trihydroxy-ent-kaur-12-one]	> 20	> 20	> 20	> 20	> 20	> 50	
C=C1C(=O)[C@@]23[C@H](O)C[C@@H]4C(C)(C)C(=O)CC[C@@]4(C)[C@@H]2CC[C@@H]1[C@H]3O [glaucocalyxin A]							apoptosis induction (HL-60 cells): induced apoptosis in HL-60 cells
CC1(C)CCCC2(C)C1CCC13CC(C(O)CC21)C(O)(CCl)C3O (stereo not drawn) [Compound 4, 12α,15β,16β-trihydroxy-17-chloro-ent-kaurane]	19.4 ± 0.38	19.9 ± 0.73	16 ± 0.21	12.6 ± 0.55	8.25 ± 0.24	> 50	times less potent than 1 and 2 [6]: 2–3 times; IC50 [8]: 1.97 to 19.9 µM
C=C1C2CC3C4(C)CCCC(C)(C)C4CCC3(C1O)C(O)C2O (stereo not drawn) [Compound 10, 13α,14β,15β-trihydroxyl-ent-atis-16-ene]	> 20	> 20	> 20	> 20	> 20	> 50	
C=C1C2CC3C4(C)CCCC(C)(C)C4CCC3(CC2O)C1O (stereo not drawn) [Compound 9, 13α,15β-trihydroxy-ent-atis-16(17)-ene]	> 20	> 20	> 20	> 20	> 20	> 50	
CC1(C)CCCC2(C)C1CCC13CC(C(O)CC21)C(O)(CO)C3O (stereo not drawn) [Compound 3, 12α,15β,16β,17-tetrahydroxy-ent-kaurane]	17.1 ± 0.36	17.1 ± 0.73	16.5 ± 0.55	14.2 ± 0.31		> 50	IC50 [6]: 6.73 ± 0.36 µM; times less potent than 1 and 2 [6]: 2–3 times; IC50 [8]: 1.97 to 19.9 µM
